Measurements: patent publication US8658573B2, “Photo-generated carbohydrate arrays and the rapid identification of pathogen-specific antigens and antibodies” (priority 2006, dated 2014)

System: rabbit anti-B. anthracis spore polyclonal IgG antibodies
Assay type: binding

| SMILES | IgG signal detected by carbohydrate arrays (n = 3), Mean | recognition of surface-bound carbohydrate by the antibody (FIG. 2A/2B) |
| --- | --- | --- |
| CO[C@H]1O[C@H](CO)[C@H](O)[C@H](O)[C@H]1O[C@@H]1O[C@@H](C)[C@H](O)[C@@H](O[C@@H]2O[C@@H](C)[C@H](O)[C@@H](O[C@H]3O[C@H](CO)[C@@H](O)[C@H](O)[C@H]3NC(C)=O)[C@H]2O)[C@H]1O [compound 22] | 0.95 |  |
| COC1O[C@H](CO)[C@H](O)[C@H](O)[C@H]1O[C@@H]1O[C@@H](C)[C@H](O)[C@@H](O)[C@H]1O (some centres unmarked) [compound 21] | 1.08 |  |
| COC(=O)CCCCCO[C@H]1O[C@@H](C)[C@H](O)[C@@H](O)[C@H]1O[C@@H]1O[C@@H](C)[C@H](O)[C@@H](O[C@@H]2O[C@@H](C)[C@H](O)[C@@H](O)[C@H]2O)[C@H]1O [compound 20] | 0.95 |  |
| COC(=O)CCCCCO[C@@H]1O[C@@H](C)[C@H](O)[C@@H](O)[C@H]1O[C@@H]1O[C@@H](C)[C@H](O)[C@@H](O[C@@H]2O[C@@H](C)[C@H](O)[C@@H](O)[C@H]2O)[C@H]1O [compound 17] | 0.98 |  |
| COC(=O)CCCCCO[C@@H]1O[C@@H](C)[C@H](O)[C@@H](O)[C@H]1O[C@@H]1O[C@@H](C)[C@H](O)[C@@H](O[C@@H]2O[C@H](C)[C@@H](NC(=O)CC(C)(C)O)[C@H](O)[C@H]2OC)[C@H]1O [compound 3] | 2.73 |  |
| CC(=O)N[C@@H](C=O)[C@@H](O)[C@@H](O)[C@H](O)CO [compound 11] | 1.03 |  |
| COC(=O)CCCCCO[C@@H]1O[C@@H](C)[C@H](O)[C@@H](O)[C@H]1O[C@@H]1O[C@@H](C)[C@H](O)[C@@H](O[C@@H]2O[C@@H](C)[C@H](O)[C@@H](O[C@@H]3O[C@H](C)[C@@H](NC(=O)CC(C)(C)O)[C@H](O)[C@H]3OC)[C@H]2O)[C@H]1O [compound 5] | 5.19 |  |
| COC(=O)CCCCCO[C@@H]1O[C@@H](C)[C@H](O)[C@@H](O)[C@H]1O[C@@H]1O[C@@H](C)[C@H](O)[C@@H](O[C@@H]2O[C@H](C)[C@@H](NC(=O)CC(C)(C)O)[C@H](O)[C@H]2OC)[C@H]1O [Id# 3, 5-(Methoxycarbonyl)-pentyl 4-(3-hydroxy-3-methylbutanamido)-2-O-methyl-4,6-dideoxy-β-D-glucopyranosyl-(1→3)-α-L-rhamnopyranosyl-(1→2)-α-L-rhamnopyranoside] |  | recognized by the antibody |
| COC(=O)CCCCCO[C@@H]1O[C@H](C)[C@@H](NC(=O)CC(C)(C)O)[C@H](O)[C@H]1OC [compound 1] | 1.44 |  |
| COC(=O)CCCCCO[C@H]1O[C@@H](C)[C@H](O)[C@@H](O)[C@H]1O [compound 15] | 0.95 |  |
| CO[C@H]1O[C@H](CO)[C@@H](O)[C@H](O[C@H]2O[C@H](CO)[C@H](O)[C@H](O)[C@H]2O[C@@H]2O[C@@H](C)[C@H](O)[C@@H](O)[C@H]2O)[C@H]1NC(C)=O [compound 23] | 1.01 |  |
| COC(=O)CCCCCO[C@H]1O[C@@H](C)[C@H](O)[C@@H](O)[C@H]1O[C@@H]1O[C@@H](C)[C@H](O)[C@@H](O)[C@H]1O [compound 19] | 0.98 |  |
| COC(=O)CCCCCO[C@H]1O[C@@H](C)[C@H](O)[C@@H](O)[C@H]1O[C@@H]1O[C@@H](C)[C@H](O)[C@@H](O[C@@H]2O[C@@H](C)[C@H](O)[C@@H](O[C@@H]3O[C@H](C)[C@@H](NC(=O)CC(C)(C)O)[C@H](O)[C@H]3OC)[C@H]2O)[C@H]1O [Id# 4, 5-(Methoxycarbonyl)-pentyl 4-(3-hydroxy-3-methylbutanamido)-2-O-methyl-4,6-dideoxy-β-D-glucopyranosyl-(1→3)-α-L-rhamnopyranoyl-(1→3)-α-L-rhamnopyranosyl-(1→2)-β-L-rhamnopyranoside] |  | recognized by the antibody |
| COC(=O)CCCCCO[C@@H]1O[C@@H](C)[C@H](O)[C@@H](O[C@@H]2O[C@H](C)[C@@H](NC(=O)CC(C)(C)O)[C@H](O)[C@H]2OC)[C@H]1O [compound 2] | 1.65 |  |
| COC(=O)CCCCCO[C@@H]1O[C@@H](C)[C@H](O)[C@@H](O)[C@H]1O [compound 14] | 0.97 |  |
| CO[C@@H]1O[C@@H](C)[C@H](O)[C@@H](O[C@@H]2O[C@@H](C)[C@H](O)[C@@H](O)[C@H]2O)[C@H]1O [compound 24] | 1.02 |  |
| COC(=O)CCCCCO[C@H]1O[C@@H](C)[C@H](O)[C@@H](O)[C@H]1O[C@@H]1O[C@@H](C)[C@H](O)[C@@H](O[C@@H]2O[C@@H](C)[C@H](O)[C@@H](O[C@@H]3O[C@H](C)[C@@H](NC(=O)CC(C)(C)O)[C@H](O)[C@H]3OC)[C@H]2O)[C@H]1O [compound 4] | 5.16 |  |
| COC(=O)CCCCCO[C@@H]1O[C@@H](C)[C@H](O)[C@@H](O)[C@H]1O[C@@H]1O[C@@H](C)[C@H](O)[C@@H](O[C@@H]2O[C@@H](C)[C@H](O)[C@@H](O[C@@H]3O[C@H](C)[C@@H](NC(=O)CC(C)(C)O)[C@H](O)[C@H]3OC)[C@H]2O)[C@H]1O [Id# 5, 5-(Methoxycarbonyl)-pentyl 4-(3-hydroxy-3-methylbutanamido)-2-O-methyl-4,6-dideoxy-β-D-glucopyranosyl-(1→3)-α-L-rhamnopyranoyl-(1→3)-α-L-rhamnopyranosyl-(1→2)-α-L-rhamnopyranoside] |  | recognized by the antibody |
| COC(=O)CCCCCO[C@@H]1O[C@@H](C)[C@H](O)[C@@H](O)[C@H]1O[C@@H]1O[C@@H](C)[C@H](O)[C@@H](O)[C@H]1O [compound 18] | 1.26 |  |
| COC(=O)CCCCCO[C@@H]1O[C@@H](C)[C@H](O)[C@@H](O[C@@H]2O[C@@H](C)[C@H](O)[C@@H](O)[C@H]2O)[C@H]1O [compound 16] | 1.00 |  |
